Source: patent US20160220590A1, “Formulations and Dosage Forms of Oxidized Phospholipids” (Vascular Biogenics Ltd., priority 2011, published 2016)

Tests used:
[1] = oral, daily dosages of 80 mg VB-201 per day or less; cited from earlier work
[2] = Pharmacokinetic study, single oral dose of 40 mg VB-201 to human subjects; assay type: in vivo; settings: single oral dose 40 mg VB-201, in all subjects
Procedure: Pharmacokinetic studies were performed using two different VB-201 formulations (formulation 10 of Example 13 and formulation 4 of Example 11). Single oral doses of 40 mg VB-201 were administered to 26 human subjects for each formulation, and the VB-201 plasma concentrations were measured for a period of 144 hours after dosing for each subject.

[3] = Aqueous solubility of VB-201; assay type: physicochemical; settings: at each tested pH: 0.1 M HCl (pH 1), 50 mM phosphate buffers (pH 5 and 7)
Procedure: The aqueous solubility of VB-201 was determined by suspending VB-201 in aqueous solutions of 0.1 M HCl (pH 1) or in 50 mM phosphate buffers (pH 5 and 7). After initial hand mixing, the preparations were further mixed by vortexing and bath sonication to try to bring about dissolution of the drug. Optical microscopy was used to examine for the presence of undissolved material. […] Thus, VB-201′ is relatively water-soluble.

[4] = Stability of VB-201 in Lauroglycol FCC; assay type: physicochemical; settings: over the course of 66 days; data not shown
Text: (§1) VB-201 was also found to be stable in Lauroglycol FCC over the course of 66 days (data not shown).

[5] = Solubility of VB-201 in molten PEG6000; assay type: physicochemical; settings: 65° C. to 105° C., 30 hours; no detectable VB-201
Procedure: Nine pieces of caked, non-ground VB-201 were submerged in molten PEG6000 at 65° C. and stirred slowly using a paddle mixer. The mix was held for approximately two hours at this temperature, examined visually for the dissolution state of the VB-201, and three samples of the liquid PEG6000 were then taken for analysis. The temperature was then raised by 10° C. and the process was repeated. The process was repeated in 10° C. steps until the mix reached a final temperature of 105° C. The entire process lasted 30 hours.
After 30 hours and at a temperature of 105° C., the PEG6000 had slowly turned lightly yellow (normal for prolonged heating of PEG6000 in air), yet there was no significant visible dissolution of VB-201 or reduction in size of the VB-201 pieces. After taking the final analytical samples the VB-201 pieces were removed from the melt, dried from PEG6000, and weighed.

[6] = Solubility of VB-201 in Lauroglycol FCC; assay type: physicochemical; settings: in Lauroglycol FCC (propylene glycol laurate)
Text: as §1

## CCCCCCCCCCCCCCCCOCC(COP(=O)([O-])OCC[N+](C)(C)C)OCCCCC(=O)O (stereo not drawn) [VB-201, 1-hexadecyl-2-(4′-carboxybutyl)-glycero-3-phosphocholine]
[1]
  safety and tolerability: safe, well-tolerated
[2]
  time VB-201 plasma concentrations were above the assay limit of quantification: at least 96 hours
[3]
  aqueous solubility of VB-201: > 225 mg/gram
[4]
  stability in Lauroglycol FCC: stable
[5]
  VB-201 concentration in molten PEG6000: < 0.5 mg/gram
[6]
  solubility of VB-201 in Lauroglycol FCC: at least 255 mg per gram
